Results taken from patent publication US10710980B2, “Aminopyridine derivatives and their use as selective ALK-2 inhibitors” (priority 2016, dated 2020).
Values after ≈ are worked out from the molar mass of the structure shown. Structures can show the parent of a compound that is named as a salt.

Assays:
[1] = Solubility (at 25° C., 24 h equilibration); assay type: physicochemical; details: for solubility: 25° C., 24 h; for solubility / solubility at 24 h: target concentration 2 mg/mL; for solubility at 24 h: 25 °C, thermodynamic from solid
[2] = Dynamic Vapor Sorption, physical stability to humidity; assay type: physicochemical; details: for physical stability (DVS): 50%-0%-90% RH

Compound: Nc1ncc(-c2ccc([C@@]34C[C@@H]3CN(C3CCOCC3)C4)cc2)cc1C(=O)NC12CCC(O)(CC1)CC2 [Fumarate salt Modification HA, 2-amino-N-(4-hydroxybicyclo[2.2.2]octan-1-yl)-5-(4-((1R,5S)-3-(tetrahydro-2H-pyran-4-yl)-3-azabicyclo[3.1.0]hexan-1-yl)phenyl)nicotinamide]
- solubility ([1]; Water/7.2): >2000 µg/mL
- solubility compared with free form Modification HA ([1]; aqueous buffers): better solubility than free form Modification HA in some aqueous buffers
- solubility at 24 h ([1]; borate buffer, pH 9, aqueous buffer, pH 9.0 borate buffer/8.6, 24 h): 30 µg/mL
- solubility ([1]; pH 1.0 1N HCl/1.1): >2000 µg/mL
- solubility ([1]; pH 2.0 HCl buffer 2.1): >2000 µg/mL
- solubility ([1]; pH 2.0 SGF/2.0): >2000 µg/mL
- solubility ([1]; pH 4.7 acetate buffer/4.8): >2000 µg/mL
- solubility ([1]; pH 5.8 FeSSIF/5.9): >2000 µg/mL
- solubility ([1]; pH 6.5 FaSSIF/6.5): 1690 µg/mL
- solubility ([1]; pH 6.8 phosphate buffer/6.8): 1080 µg/mL
- physical stability (DVS) ([2]; 25° C.): physically stable at least from 0% to 90% RH
- physical stability (DVS) ([2]; 40° C.): physically stable at least from 10% to 90% RH
- humidity range of stability compared with free form polymorphs ([2]; data not shown): stable over a wider humidity range than free form polymorphs

Compound: Nc1ncc(-c2ccc([C@@]34C[C@@H]3CN(C3CCOCC3)C4)cc2)cc1C(=O)NC12CCC(O)(CC1)CC2 [Free form Modification HA, 2-amino-N-(4-hydroxybicyclo[2.2.2]octan-1-yl)-5-(4-((1R,5S)-3-(tetrahydro-2H-pyran-4-yl)-3-azabicyclo[3.1.0]hexan-1-yl)phenyl)nicotinamide]
- solubility at 24 h ([1]; 1N HCl, pH 1, simulated gastric fluid, pH 1.0 1N HCl/1.1, 24 h): > 2000 µg/mL
- solubility at 24 h ([1]; FeSSIF, pH 5.8, fessif, pH 5.8 FeSSIF/5.9, 24 h): 1690 µg/mL (≈ 3.36 mM)
- solubility at 24 h ([1]; HCl buffer, pH 2, simulated gastric fluid, pH 2.0 HCl buffer 2.1, 24 h): > 2000 µg/mL
- solubility at 24 h ([1]; SGF, pH 2, simulated gastric fluid, pH 2.0 SGF/2.0, 24 h): > 2000 µg/mL
- solubility ([1]; Water/7.2): 70 µg/mL (≈ 0.139 mM)
- solubility at 24 h ([1]; acetate buffer, pH 4.7, aqueous buffer, pH 4.7 acetate buffer/4.8, 24 h): > 2000 µg/mL
- solubility ([1]; pH 6.5 FaSSIF/6.5): 470 µg/mL (≈ 0.935 mM)
- solubility ([1]; pH 6.8 phosphate buffer/6.8): 340 µg/mL (≈ 0.676 mM)
- solubility ([1]; pH 9.0 borate buffer/8.6): <LOQ
